Experimental data taken from patent US20060135773A1, “Trisubstituted nitrogen modulators of tyrosine phosphatases” (priority 2004, published 2006).
Like-named read-outs stand apart in the source and are kept apart here.

How the values were obtained:
PTP-1B = molecular target: T1, PTP-1B (Homo sapiens, UniProt P18031); assay: pNPP tyrosine phosphatase inhibition assay, PTP-1B; format: biochemical
T1 construct: PTP-1B (purified, 1 mg/mL) as a 1:250 dilution
T1 sequence (P18031 1-321 limits assumed): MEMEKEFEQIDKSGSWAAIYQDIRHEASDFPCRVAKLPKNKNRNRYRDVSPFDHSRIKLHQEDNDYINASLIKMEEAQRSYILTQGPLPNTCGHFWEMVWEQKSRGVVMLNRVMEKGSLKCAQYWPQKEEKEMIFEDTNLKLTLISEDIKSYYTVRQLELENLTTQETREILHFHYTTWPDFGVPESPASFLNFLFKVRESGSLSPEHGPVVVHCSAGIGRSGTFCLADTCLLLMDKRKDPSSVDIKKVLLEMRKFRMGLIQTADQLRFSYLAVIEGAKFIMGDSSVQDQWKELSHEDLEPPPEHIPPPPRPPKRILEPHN
In short: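 Test compounds were screened at two final levels, 31.3 and 10 µM, against 4 µg/mL purified PTP-1B. The substrate was 10 mM p-nitrophenyl phosphate, with incubation for 10 min at 30°C before a K2CO3 quench. Activity was taken from A405.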

[1] = system: pIR (phosphorylated insulin receptor) in FAO cells; assay: IR phosphorylation assay in FAO cells (pIR ELISA / Western); format: cell-based, rat; conditions: 10 nM insulin and 10 μM compound
From the text: Antibodies and Chemicals. The antibody against phosphorylated insulin receptor (pIR) and the ELISA kit for detection of pIR were from Biosource (Camarillo, Calif.). Rabbit anti-IR/IGF-IR [pYpY1162/1163] phosphospecific antibody recognizes both the insulin receptor (IR) and the insulin-like growth factor-1 receptor (IGF-1R) phosphorylated at the active site tyrosine residues, 1162 and 1163 (1135 and 1136 for IGF-1R) (pIR/pIGF-1R). The Insulin Receptor [pYpY1162/1163] […] HRP-conjugated secondary antibodies were from Cell Signaling Technology (Beverly, Mass.). The ECL detection system was from Amersham (Buckinghamshire, UK), and human insulin was from Invitrogen (Carlsbad, Calif.).
Tissue Culture. FAO rat hepatoma cells were obtained from ECACC (#89042701) and maintained at 37° C. in a 5% CO2 environment in Dulbecco's modified Eagle's medium with high glucose (DMEM-high glucose) (4500 mg/liter) supplemented with 10% FBS and 50 units/ml penicillin, 100 μg/ml streptomycin and 0.292 mg/ml L-glutamine. For assays, cells were seeded in 24-well plates at a density of 2×10^5 cells/well and maintained until they reached confluency (about 3 days).
IR phosphorylation assays. Cells in 24-well plates were serum starved overnight in DMEM-low glucose (1000 mg/liter) without serum. […] The pIR/pIGF-1R signals were scanned (HP scanjet 3570c) and quantified (Scion Image). […]

[2] = pNPP assay, PTP-1B, read-out: Activity Class (IC50 ranges)

Molecule | IC50 (PTP-1B; [2]) | melting point | insulin-induced accumulation of pIR, % of 300 nM insulin pIR signal [1] | IC50 (PTP-1B; in vitro activity of the prodrug, range as in Table 1, read-out: in vitro activity)
CN(Cc1ccc(C(F)(F)P(=O)(O)O)cc1)Cc1ccc(C(F)(F)P(=O)(O)O)cc1 [Compound 15, {[4-({[4-(Difluoro-phosphono-methyl)-benzyl]-methyl-amino}-methyl)-phenyl]-difluoro-methyl}-phosphonic acid] | > 25000 nM | 268 to 270 °C | – | –
COc1ccccc1S(=O)(=O)N(Cc1ccc(-c2cccc(C#N)c2)cc1)Cc1ccc(C(F)(F)P(=O)(O)OC(C)OC(=O)OC(C)C)c(Cl)c1 (stereo not shown) [Compound 218, [(2-Chloro-4-{[(3′-cyano-biphenyl-4-ylmethyl)-(2-methoxy-benzenesulfonyl)-amino]-methyl}-phenyl)-difluoro-methyl]-phosphonic acid mono-(1-isopropoxycarbonyloxy-ethyl) ester] | 2500 to 25000 nM | – | about 80 % of 300 nM insulin pIR signal | 2500 to 25000 nM
O=P(O)(O)C(F)(F)c1ccc(CN(Cc2ccc(C(F)(F)P(=O)(O)O)cc2)S(=O)(=O)CCc2ccccc2)cc1 [Compound 9, [(4-{[[4-(Difluoro-phosphono-methyl)-benzyl]-(2-phenyl-ethanesulfonyl)-amino]-methyl}-phenyl)-difluoro-methyl]-phosphonic acid] | 250 to 499 nM | 181 to 183 °C | – | –
COc1ccccc1S(=O)(=O)N(Cc1ccc(NC(=O)C(=O)O)cc1)Cc1ccc(NC(=O)C(=O)O)cc1 [Compound 57, N-[4-({(2-Methoxy-benzenesulfonyl)-[4-(oxalyl-amino)-benzyl]-amino}-methyl)-phenyl]-oxalamic acid] | > 25000 nM | 187 to 189 °C (dec.) | – | –
O=P(O)(O)C(F)(F)c1ccc(CN(Cc2ccc(-c3ccccc3)cc2)Cc2ccc(C(F)(F)P(=O)(O)O)cc2)cc1 [Compound 20, {[4-({Biphenyl-4-ylmethyl-[4-(difluoro-phosphono-methyl)-benzyl]-amino}-methyl)-phenyl]-difluoro-methyl}-phosphonic acid] | 2500 to 25000 nM | 125 to 128 °C | – | –
O=C(c1ccccc1)N(Cc1ccc(C(F)(F)P(=O)(O)O)cc1)Cc1ccc(C(F)(F)P(=O)(O)O)cc1 [Compound 11, {[4-({Benzoyl-[4-(difluoro-phosphono-methyl)-benzyl]-amino}-methyl)-phenyl]-difluoro-methyl}-phosphonic acid] | 2500 to 25000 nM | 87 to 89 °C | – | –
O=P(O)(O)C(F)(F)c1ccc(CN(Cc2ccc(C(F)(F)P(=O)(O)O)cc2)S(=O)(=O)c2ccccc2Cl)cc1 [Compound 5, {[4-({(2-Chloro-benzenesulfonyl)-[4-(difluoro-phosphono-methyl)-benzyl]-amino}-methyl)-phenyl]-difluoro-methyl}-phosphonic acid] | 100 to 249 nM | 170 to 172 °C | – | –
O=C(NCc1ccccc1)N(Cc1ccc(C(F)(F)P(=O)(O)O)cc1)Cc1ccc(C(F)(F)P(=O)(O)O)cc1 [Compound 13, [(4-{3-Benzyl-1-[4-(difluoro-phosphono-methyl)-benzyl]-ureidomethyl}-phenyl)-difluoro-methyl]-phosphonic acid] | > 25000 nM | 124 to 127 °C | – | –
O=C(O)c1ccc(CN(Cc2ccc(C(F)(F)P(=O)(O)O)c(Br)c2)S(=O)(=O)c2ccccc2)cc1 [Compound 31, 4-({Benzenesulfonyl-[3-bromo-4-(difluoro-phosphono-methyl)-benzyl]-amino}-methyl)-benzoic acid] | 100 to 249 nM | 160 to 162 °C | – | –
COc1ccccc1S(=O)(=O)N(Cc1ccc(C#N)cc1)Cc1ccc(NS(=O)(=O)C(F)(F)F)c(C(=O)O)c1 [Compound 139, 5-{[(4-Cyano-benzyl)-(2-methoxy-benzenesulfonyl)-amino]-methyl}-2-trifluoromethanesulfonylamino-benzoic acid] | > 25000 nM | – | – | –
COc1ccccc1S(=O)(=O)N(Cc1ccc(C(=O)C(=O)O)cc1)Cc1ccc(S(C)(=O)=O)cc1 [Compound 125, (4-{[(4-Methanesulfonyl-benzyl)-(2-methoxy-benzenesulfonyl)-amino]-methyl}-phenyl)-oxo-acetic acid] | > 25000 nM | – | – | –
{[4-(difluorophosphonomethyl)-3-chlorophenyl]methyl}[(2-(2,3-dihydrobenzo[b]furan-5-yl)phenyl)methyl][(2-methoxyphenyl)sulfonyl]amine [Compound 204] | < 99 nM | – | – | –
O=C(O)c1ccc(CN(Cc2ccc(C(=O)O)cc2)S(=O)(=O)c2ccccc2)cc1 [Compound 78, 4-([Benzenesulfonyl-(4-carboxybenzyl)-amino]-methyl)-benzoic acid] | > 25000 nM | – | – | –
O=C(OCc1ccccc1)N(Cc1ccc(C(F)(F)P(=O)(O)O)cc1)Cc1ccc(C(F)(F)P(=O)(O)O)cc1 [Compound 17, {[4-({Benzyloxycarbonyl-[4-(difluoro-phosphono-methyl)-benzyl]-amino}-methyl)-phenyl]-difluoro-methyl}-phosphonic acid] | 2500 to 25000 nM | 106 to 108 °C | – | –
COc1ccccc1S(=O)(=O)N(Cc1ccc(-c2ccc(C#N)cc2)cc1)Cc1ccc(C(F)(F)P(=O)(O)O)c(Cl)c1 [Compound 155, [(2-Chloro-4-{[(4′-cyano-biphenyl-4-ylmethyl)-(2-methoxy-benzenesulfonyl)-amino]-methyl}-phenyl)-difluoro-methyl]-phosphonic acid] | 100 to 249 nM | – | – | –
COc1ccccc1S(=O)(=O)N(Cc1ccc(C(F)(F)P(=O)(O)O)c(Cl)c1)Cc1ccccc1-c1cccc(O)c1 [Compound 184, [(2-Chloro-4-{[(3′-hydroxy-biphenyl-2-ylmethyl)-(2-methoxy-benzenesulfonyl)-amino]-methyl}-phenyl)-difluoro-methyl]-phosphonic acid] | 100 to 249 nM | – | – | –
COc1ccccc1S(=O)(=O)N(Cc1ccc(C#N)cc1)Cc1ccc(N(S(=O)(=O)C(F)(F)F)S(=O)(=O)C(F)(F)F)cc1 [Compound 112, N-(4-[bis(N-trifluoro-methanesulfonyl)amino]benzyl)-N-(4-cyanobenzyl)-(2-methoxy)benzenesulfonamide] | > 25000 nM | – | – | –
